Patent publication US9481659B2, “Selective heterocyclic sphingosine 1 phosphate receptor modulators” (Celgene International II SÀRL, priority 2011, dated 2016)
Where a name gives a salt, the structure may show the parent alone.

Molecular target: S1P1/EDG1 (Homo sapiens, UniProt P21453)
Assay: S1P1 CRE-bla CHOK1 reporter assay, inhibition of Forskolin induced cAMP
Assay type: cell-based
Details: agonist activity range; S1P1 CRE-bla CHOK1 cells, 2 μM Forskolin; read-out: S1P1 ACTIVITY
Description: Generation of S1P1-Mediated Inhibition of cAMP Reporter Assay
A mammalian expression plasmid containing S1P1/EDG1 cloned into pcDNA3.1 was purchased from Missouri S&T cDNA Resource Centre. […] S1P1/pcDNA3.1 was transfected into the CRE-bla CHO K1 (Invitrogen) cell line, and stable single cell clones were selected using standard techniques.
S1P1 CRE-Bla CHOK1 Reporter Assay—Characterization of S1P1 Agonists
Cells were seeded into 384-well black wall/clear bottom plates at 10^4 cells/well/19.5 μl assay media (DMEM-phenol free, 0.5% charcoal/dextran stripped serum, 2 mM glutamine, 0.1 mM NEAA, 1 mM Na-Pyruvate, 25 mM Hepes) and incubated for 18 hrs at 37° C. in 5% CO2. Dose response curves (10-point) were generated in 10 mM Hepes, 0.1% Pluronic F127, in the presence of Forskolin. Cells were treated with 0.5 μl compound in the presence of 2 μM Forskolin for 4 hrs at 37° C. The FRET-based β-lactamase fluorescent substrate (LiveBLAzer™-FRET B/G Loading Kit CC4-AM; Invitrogen) was prepared according to manufacturer's directions, and incubated with cells for 2 hrs at room temperature.

S1P1/EDG1, sequence (P21453 whole entry): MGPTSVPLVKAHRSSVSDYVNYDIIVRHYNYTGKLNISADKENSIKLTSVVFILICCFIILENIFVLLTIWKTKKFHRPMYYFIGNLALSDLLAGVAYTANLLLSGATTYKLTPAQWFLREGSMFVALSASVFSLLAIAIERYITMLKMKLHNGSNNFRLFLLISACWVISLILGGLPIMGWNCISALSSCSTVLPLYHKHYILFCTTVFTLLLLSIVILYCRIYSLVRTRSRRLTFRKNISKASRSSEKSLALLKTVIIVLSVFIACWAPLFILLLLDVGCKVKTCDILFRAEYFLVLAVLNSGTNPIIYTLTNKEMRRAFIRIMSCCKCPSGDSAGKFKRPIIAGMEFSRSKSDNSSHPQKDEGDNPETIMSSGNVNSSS

Row | SMILES | EC50 [nM]
1 | CC(C)Oc1ccc(-c2nnc(-c3cccc4c3CC[C@H]4NCC(=O)O)s2)cc1C#N [Compound 27, (R)-2-((4-(5-(3-cyano-4-isopropoxyphenyl)-1,3,4-thiadiazol-2-yl)-2,3-dihydro-1H-inden-1-yl)amino)acetic acid] | 0.05 to 0.5
2 | CC(C)Oc1ccc(-c2ncc(-c3cccc4c3CC[C@H]4NS(=O)(=O)CCN3CCNCC3)s2)cc1C#N [Compound 151] | > 5
3 | CC(C)Oc1ccc(-c2ncc(-c3cccc4c3CC[C@H]4NCC(=O)O)s2)cc1C#N [Compound 96, (R)-2-((4-(2-(3-cyano-4-isopropoxyphenyl)thiazol-5-yl)-2,3-dihydro-1H-inden-1-yl)amino)acetic acid] | 0.05 to 0.5
4 | CC(C)Oc1ccc(-c2nnc(-c3cccc4c3CCC[C@H]4NC(=O)c3cccnc3)s2)cc1C#N [Compound 234] | 0.5 to 5
5 | CC(C)Oc1ccc(-c2ncc(-c3cccc4c3CC[C@H]4NS(=O)(=O)CCO)s2)cc1C#N [Compound 164, (R)—N-(4-(2-(3-cyano-4-isopropoxyphenyl)thiazol-5-yl)-2,3-dihydro-1H-inden-1-yl)-2-hydroxyethanesulfonamide] | 0.05 to 0.5
6 | CC(C)Oc1ccc(-c2nnc(-c3cccc4c3CCC[C@@H]4NC(=O)CCN)s2)cc1C#N [Compound 253] | 0.5 to 5
7 | CC(C)Oc1ccc(-c2ncc(-c3cccc4c3CC[C@H]4NC(=O)N3CCC(O)CC3)s2)cc1C#N [Compound 202] | 0.5 to 5
8 | COC(=O)N[C@@H]1CCc2c(-c3cnc(-c4ccc(OC(C)C)c(C#N)c4)s3)cccc21 [Compound 89] | 0.5 to 5
9 | CC(C)Oc1ccc(-c2nnc(-c3cccc4c3CC[C@H]4N)s2)cc1C#N [Compound 5, (R)-5-(5-(1-amino-2,3-dihydro-1H-inden-4-yl)-1,3,4-thiadiazol-2-yl)-2isopropoxybenzonitrile hydrochloride] | 0.5 to 5
10 | CC(C)Oc1ccc(-c2ncc(-c3cccc4c3CC[C@H]4NC(=O)N3CC[C@@H](N(C)C)C3)s2)cc1C#N [Compound 183] | 0.5 to 5
11 | CC(C)Oc1ccc(-c2nnc(-c3cccc4c3CCC[C@@H]4NS(=O)(=O)C3CC3)s2)cc1C#N [Compound 283] | 0.05 to 0.5
12 | CC(C)Oc1ccc(-c2nnc(-c3cccc4c3CC[C@H]4NS(N)(=O)=O)s2)cc1C#N [Compound 48, (R)—N-(4-(5-(3-cyano-4-isopropoxyphenyl)-1,3,4-thiadiazol-2-yl)-2,3-dihydro-1H-inden-1-yl) sulfamide] | < 0.05
13 | CC(C)Oc1ccc(-c2nnc(-c3cccc4c3CC[C@H]4NCC(=O)N3CCCC3)s2)cc1C#N [Compound 39] | 0.05 to 0.5
14 | CC(C)Oc1ccc(-c2nnc(-c3cccc4c3CCC[C@@H]4NCc3ccncc3)s2)cc1C#N [Compound 270] | 0.5 to 5
15 | CC(C)Oc1ccc(-c2ncc(-c3cccc4c3CC[C@@H]4NC(=O)N3CCC[C@@H](O)C3)s2)cc1C#N [Compound 196] | 0.5 to 5
16 | CC(C)Oc1ccc(-c2nsc(-c3cccc4c3CC[C@@H]4N)n2)cc1C#N [Compound 308, (S)-5-(5-(1-amino-2,3-dihydro-1H-inden-4-yl)-1,2,4-thiadiazol-3-yl)-2-isopropoxy benzonitrile hydrochloride] | 0.5 to 5
17 | CC(C)Oc1ccc(-c2ncc(-c3cccc4c3CC[C@H]4NC(=O)N3CCN(C)CC3)s2)cc1C#N [Compound 190] | 0.5 to 5
18 | CC(C)Oc1ccc(-c2ncc(-c3cccc4c3CC[C@@H]4NCC(=O)N3CC[C@@H](O)C3)s2)cc1C#N [Compound 105] | > 5
19 | CC(C)Oc1ccc(-c2nnc(-c3cccc4c3CC[C@H]4NC(=O)N3CC[C@H](O)C3)s2)cc1C#N [Compound 54] | 0.05 to 0.5
20 | CC(C)Oc1ccc(-c2ncc(-c3cccc4c3CC[C@H]4NS(=O)(=O)CCN3CCC[C@H](O)C3)s2)cc1C#N [Compound 144] | 0.5 to 5
21 | CNC(=O)CCS(=O)(=O)N[C@H]1CCCc2c(-c3nnc(-c4ccc(OC(C)C)c(C#N)c4)s3)cccc21 [Compound 298, (S)-3-(N-(5-(5-(3-cyano-4-isopropoxyphenyl)-1,3,4-thiadiazol-2-yl)-1,2,3,4-tetrahydronaphthalen-1-yl)sulfamoyl)-N-methylpropanamide] | 0.05 to 0.5
22 | CC(C)Oc1ccc(-c2ncc(-c3cccc4c3CCC[C@H]4NS(N)(=O)=O)s2)cc1C#N [Compound 277, (R)—N-(5-(2-(3-cyano-4-isopropoxyphenyl)thiazol-5-yl)-1,2,3,4-tetrahydronaphthalen-1-yl)sulfamide] | 0.05 to 0.5
23 | CC(C)Oc1ccc(-c2nnc(-c3cccc4c3CC[C@H]4NC(=O)N3CC(O)C3)s2)cc1C#N [Compound 65] | 0.05 to 0.5

Row | SMILES | EC50 [nM]
24 | CC(C)Oc1ccc(-c2nnc(-c3cccc4c3CC[C@H]4NC(=O)N3CCC[C@H](O)C3)s2)cc1C#N [Compound 61] | 0.05 to 0.5
25 | CNC(=O)CN[C@@H]1CCCc2c(-c3nnc(-c4ccc(OC(C)C)c(C#N)c4)s3)cccc21 [Compound 305] | 0.05 to 0.5
26 | CC(C)Oc1ccc(-c2nnc(-c3cccc4c3CCC[C@@H]4NS(N)(=O)=O)s2)cc1C#N [Compound 276, (S)—N-(5-(5-(3-cyano-4-isopropoxyphenyl)-1,3,4-thiadiazol-2-yl)-1,2,3,4-tetrahydronaphthalen-1-yl)sulfamide] | 0.05 to 0.5
27 | CC(C)Oc1ccc(-c2nnc(-c3cccc4c3CCC[C@H]4NC(=O)CCNS(C)(=O)=O)s2)cc1C#N [Compound 258] | 0.5 to 5
28 | CC(C)Oc1ccc(-c2nnc(-c3cccc4c3CCC[C@H]4NS(C)(=O)=O)s2)cc1C#N [Compound 278, (R)—N-(5-(5-(3-cyano-4-isopropoxyphenyl)-1,3,4-thiadiazol-2-yl)-1,2,3,4-tetrahydronaphthalen-1-yl)methanesulfonamide] | 0.05 to 0.5
29 | CC(C)Oc1ccc(-c2nc(-c3cccc4c3CC[C@@H]4NS(=O)(=O)CCO)ns2)cc1C#N [Compound 314, (S)—N-(4-(5-(3-cyano-4-isopropoxyphenyl)-1,2,4-thiadiazol-3-yl)-2,3-dihydro-1H-inden-1-yl)-2-hydroxyethanesulfonamide] | 0.5 to 5
30 | CC(C)Oc1ccc(-c2ncc(-c3cccc4c3CC[C@H]4NS(C)(=O)=O)s2)cc1C#N [Compound 111, (R)—N-(4-(2-(3-cyano-4-isopropoxyphenyl)thiazol-5-yl)-2,3-dihydro-1H-inden-1-yl)methanesulfonamide] | 0.05 to 0.5
31 | CC(C)Oc1ccc(-c2ncc(-c3cccc4c3CCC[C@H]4N)s2)cc1C#N [Compound 230, (R)-5-(5-(5-amino-5,6,7,8-tetrahydronaphthalen-1-yl)thiazol-2-yl)-2-isopropoxybenzonitrile hydrochloride] | 0.5 to 5
32 | CC(C)Oc1ccc(-c2nnc(-c3cccc4c3CCC[C@H]4NC(=O)CCN)s2)cc1C#N [Compound 249] | 0.5 to 5
33 | CC(C)Oc1ccc(-c2nnc(-c3cccc4c3CCC[C@@H]4NCc3ncc[nH]3)s2)cc1C#N [Compound 266] | 0.05 to 0.5
34 | CC(C)Oc1ccc(-c2nnc(-c3cccc4c3CCC[C@@H]4NS(=O)(=O)CCCO)s2)cc1C#N [Compound 291] | 0.05 to 0.5
35 | COCC(=O)N[C@H]1CCCc2c(-c3nnc(-c4ccc(OC(C)C)c(C#N)c4)s3)cccc21 [Compound 239] | 0.5 to 5
36 | COC(=O)CS(=O)(=O)N[C@@H]1CCc2c(-c3cnc(-c4ccc(OC(C)C)c(C#N)c4)s3)cccc21 [Compound 154, (R)-methyl 2-(N-(4-(2-(3-cyano-4-isopropoxyphenyl)thiazol-5-yl)-2,3-dihydro-1H-inden-1-yl)sulfamoyl)acetate] | 0.05 to 0.5
37 | CC(C)Oc1ccc(-c2nnc(-c3cccc4c3CCC[C@H]4NCc3c[nH]cn3)s2)cc1C#N [Compound 261] | > 5
38 | CC(C)Oc1ccc(-c2nnc(-c3cccc4c3CC[C@H]4O)s2)cc1C#N [Compound 2, (R)-5-(5-(1-hydroxy-2,3-dihydro-1H-inden-4-yl)-1,3,4-thiadiazol-2-yl)-2-isopropoxybenzonitrile] | 0.05 to 0.5
39 | CC(C)Oc1ccc(-c2nnc(-c3cccc4c3CCC[C@H]4NC(=O)CN)s2)cc1C#N [Compound 250] | 0.5 to 5
40 | CC(C)Oc1ccc(-c2nnc(-c3cccc4c3CCC[C@@H]4NC(=O)CN(C)C)s2)cc1C#N [Compound 238] | 0.5 to 5
41 | CC(C)Oc1ccc(-c2nnc(-c3cccc4c3CCC[C@@H]4NC(=O)CO)s2)cc1C#N [Compound 246, (S)—N-(5-(5-(3-cyano-4-isopropoxyphenyl)-1,3,4-thiadiazol-2-yl)-1,2,3,4-tetrahydronaphthalen-1-yl)-2-hydroxyacetamide] | 0.05 to 0.5
42 | CC(C)Oc1ccc(-c2nnc(-c3cccc4c3CCC[C@@H]4NCCO)s2)cc1C#N [Compound 300, (S)-5-(5-(5-((2-hydroxyethyl)amino)-5,6,7,8-tetrahydronaphthalen-1-yl)-1,3,4-thiadiazol-2-yl)-2-isopropoxybenzonitrile] | 0.05 to 0.5
43 | CC(C)Oc1ccc(-c2nc(-c3cccc4c3CC[C@@H]4N(CCO)CCO)ns2)cc1C#N [Compound 312, (S)-5-(3-(1-(bis(2-hydroxyethyl)amino)-2,3-dihydro-1H-inden-4-yl)-1,2,4-thiadiazol-5-yl)-2-isopropoxybenzonitrile hydrochloride] | 0.5 to 5
44 | CC(C)Oc1ccc(-c2ncc(-c3cccc4c3CC[C@H]4NC(=O)[C@@H](N)CO)s2)cc1C#N [Compound 79] | 0.05 to 0.5
45 | COC(=O)N[C@@H]1CCc2c(-c3nnc(-c4ccc(OC(C)C)c(C#N)c4)s3)cccc21 [Compound 68] | 0.05 to 0.5
